Measurements as given in patent publication US4666890A, “Peptide, process for preparation thereof and use thereof” (priority 1978, dated 1987).

Tests used:
[1] = test system: mice; assay: Acute toxicity in mice; format: in vivo; conditions: 1 g/kg (i.v.)
Text: ACUTE TOXICITY IN MICE of FR-900156
1 g/kg (i.v.): no toxicity.

[2] = test system: Mice (DDY male 5-6 W); assay: Blood stream clearance of carbon; format: in vivo
Procedure: 1. Carbon suspension. Rotoring drawing ink (170 mg carbon/ml.) was diluted to 1/5 of the original concentration in saline containing 1% gelatin.
2. 0.1% aqueous sodium carbonate solution.
Mice (DDY male 5-6 W) were injected via the tail vein with a dose of 0.01 ml/g body weight of carbon. Blood samples were taken by means of a pointed capillary pippet calibrated to hold a 50 μl and previously washed in heparin. This was plunged into the retrooribital venous sinus at the nasal angle of the eye. The samples were removed at 3 and 6 min. The blood was immediately discharged into 3.0 ml. of the sodium carbonate solution. This hemolyszed the blood and allowed the quantitation of carbon. The samples were then read in a spectrophotometer at 660 nm, the log concentration being obtained from a previously determined standard curve. The clearance value K may be determined by plotting log carbon concentration against time according to the following relationship; [formula] in which T1 and T2 represent the time in min when the sample were withdrawn and C1 and C2 represent the concentrations of carbon in the blood at the time T1 and T2, respectively.
The aqueous solution of the test compound as given was administered subcutaneously to mice. Twenty four hours later, blood stream clearance of carbon was measured. K value obtained with treated mice was compared with that of control mice.

SMILES	Acute toxicity in mice [1]	Ktreated /Kcontrol ([2]; dose 1 mg/mouse)	Ktreated /Kcontrol ([2]; dose 10 mg/mouse)
C[C@H](NC(=O)[C@@H](C)O)C(=O)N[C@H](CCC(=O)N[C@@H](CCC[C@@H](N)C(=O)O)C(=O)NCC(=O)O)C(=O)O [FR-900156 substance]	no toxicity	–	–
c1ccc([C@H]2CN3CCSC3=N2)cc1 [Levamisol]	–	0.5	death
